How the values were obtained:
[1] = tested on: MDA-MB-435; test: Antiproliferative activity against human MDA-MB-435 cells after 5 days by MTT assay; type: functional, cell-based; details: MDA-MB-435, 120 h
[2] = target: Cyclin-dependent kinase 2/cyclin E1 (Homo sapiens, UniProt P24941); test: Inhibition of human CDK2/CyclinE expressed in baculovirus insect cell system using Rb as substrate after 30 mins by scintillation counting
[3] = tested on: RKO; test: Antiproliferative activity against human RKO cells after 5 days by MTT assay; type: functional, cell-based; details: 120 h
[4] = Cell cycle arrest in human 1043SK cells assessed as accumulation at G1 phase measuring reduction of BrdU incorporation of into cellular DNA by ELISA; type: functional, cell-based

**Q.** For `COc1cc[nH]c1/C=C1\C(=O)Nc2ccc([N+](=O)[O-])c(N3CCCC(O)C3)c21` (centres undefined), which IC50 [1] is on record?
**A.** 250 nM

**Q.** And the IC50 [2]?
**A.** 2 nM

**Q.** What about the IC50 [3] of the same molecule?
**A.** 105 nM

**Q.** Which results are given for `COc1cc[nH]c1/C=C1\C(=O)Nc2ccc([N+](=O)[O-])c(N3CC[C@@H](NC=O)C3)c21`?
**A.** IC50 [1]: 33 nM; IC50 [2]: 3 nM; IC50 [3]: 32 nM

**Q.** For `COc1cc[nH]c1/C=C1\C(=O)Nc2ccc([N+](=O)[O-])c(N3CCC(O)CC3)c21`, which IC50 [1] is on record?
**A.** 46 nM

**Q.** And the IC50 [2]?
**A.** 4 nM

**Q.** What about the IC50 [3] of the same molecule?
**A.** < 10 nM

**Q.** What does the source list for `COc1cc[nH]c1/C=C1\C(=O)Nc2ccc([N+](=O)[O-])c(N3CCCC(C(N)=O)C3)c21` (centres undefined)?
**A.** IC50 [1]: 623 nM; IC50 [2]: 6 nM; IC50 [3]: 192 nM

**Q.** Which results are given for `COc1cc[nH]c1/C=C1\C(=O)Nc2ccc([N+](=O)[O-])c(NC3CCNCC3)c21`?
**A.** IC50 [1]: 139 nM; IC50 [2]: 5 nM; IC50 [3]: 24 nM

**Q.** For `COc1cc[nH]c1/C=C1\C(=O)Nc2ccc(F)cc21`, which IC50 [1] is on record?
**A.** > 30000 nM

**Q.** What about the IC50 [2] of the same molecule?
**A.** 847 nM

**Q.** And the IC50 [3]?
**A.** 11900 nM

**Q.** With `COc1cc[nH]c1/C=C1\C(=O)Nc2ccc([N+](=O)[O-])c(N3CCCC(CO)C3)c21` (centres undefined) as the molecule, how does the IC50 [1] read?
**A.** 441 nM

**Q.** What about the IC50 [2] of the same molecule?
**A.** 2 nM

**Q.** What about the IC50 [3] of the same molecule?
**A.** 124 nM

**Q.** For `COc1cc[nH]c1/C=C1\C(=O)Nc2ccc([N+](=O)[O-])c(-n3ccnc3)c21`, which IC50 [1] is on record?
**A.** > 30000 nM

**Q.** And the IC50 [2]?
**A.** 1750 nM

**Q.** And the IC50 [3]?
**A.** 3920 nM

**Q.** With `COc1cc[nH]c1/C=C1\C(=O)Nc2ccc([N+](=O)[O-])c(N[C@H]3CC[C@H](N)C3)c21` (racemic) as the molecule, how does the IC50 [1] read?
**A.** 61 nM

**Q.** What about the IC50 [2] of the same molecule?
**A.** 5 nM

**Q.** What about the IC50 [3] of the same molecule?
**A.** < 15 nM

**Q.** Which results are given for `COc1cc[nH]c1/C=C1\C(=O)Nc2ccc([N+](=O)[O-])c(N[C@H]3CC[C@H](O)CC3)c21`?
**A.** IC50 [1]: 8550 nM; IC50 [2]: 6 nM; IC50 [3]: 8040 nM

**Q.** For `COc1cc[nH]c1/C=C1\C(=O)Nc2ccc([N+](=O)[O-])c(N3CC[C@@H](O)C3)c21`, which IC50 [1] is on record?
**A.** 88 nM

**Q.** And the IC50 [2]?
**A.** 3 nM

**Q.** What about the IC50 [3] of the same molecule?
**A.** 32 nM

**Q.** And the IC50 [4]?
**A.** 830 nM

**Q.** Which IC50 [1] does the source give for `COc1cc[nH]c1/C=C1\C(=O)Nc2ccc([N+](=O)[O-])c(N[C@H]3CC[C@H](O)C3)c21` (racemic) here?
**A.** 1000 nM

**Q.** And the IC50 [2]?
**A.** 5 nM

**Q.** And the IC50 [3]?
**A.** 339 nM

**Q.** For `COc1cc[nH]c1/C=C1\C(=O)Nc2ccccc21`, which IC50 [2] is on record?
**A.** 5360 nM

**Q.** With `COc1cc[nH]c1/C=C1\C(=O)Nc2ccc([N+](=O)[O-])c(N3CCC(N)CC3)c21` as the molecule, how does the IC50 [1] read?
**A.** < 10 nM

**Q.** What about the IC50 [2] of the same molecule?
**A.** 5 nM

**Q.** What about the IC50 [3] of the same molecule?
**A.** < 10 nM

**Q.** What does the source list for `COc1cc[nH]c1/C=C1\C(=O)Nc2ccc([N+](=O)[O-])c(N3CCNC(C(N)=O)C3)c21` (centres undefined)?
**A.** IC50 [1]: 1270 nM; IC50 [2]: 28 nM; IC50 [3]: 449 nM

**Q.** For `COc1cc[nH]c1/C=C1\C(=O)Nc2ccc([N+](=O)[O-])c(N3CC[C@H](O)C3)c21`, which IC50 [1] is on record?
**A.** 104 nM

**Q.** What about the IC50 [2] of the same molecule?
**A.** 5 nM

**Q.** What about the IC50 [3] of the same molecule?
**A.** 37 nM

**Q.** Which IC50 [1] does the source give for `COc1cc[nH]c1/C=C1\C(=O)Nc2ccc([N+](=O)[O-])cc21` here?
**A.** 7460 nM

**Q.** And the IC50 [2]?
**A.** 39 nM

**Q.** And the IC50 [3]?
**A.** 692 nM

**Q.** Which IC50 [1] does the source give for `COc1ccc2c(c1)/C(=C/c1[nH]ccc1OC)C(=O)N2` here?
**A.** 8080 nM

**Q.** What about the IC50 [2] of the same molecule?
**A.** 209 nM

**Q.** What about the IC50 [3] of the same molecule?
**A.** 3860 nM

**Q.** Which IC50 [1] does the source give for `COc1cc[nH]c1/C=C1\C(=O)Nc2ccc([N+](=O)[O-])c(N3CC[C@@H](N)C3)c21` here?
**A.** < 10 nM

**Q.** And the IC50 [2]?
**A.** 3 nM

**Q.** And the IC50 [3]?
**A.** < 10 nM

**Q.** Which IC50 [1] does the source give for `COc1cc[nH]c1/C=C1\C(=O)Nc2ccc([N+](=O)[O-])c(N3CC[C@H](C(N)=O)C3)c21` here?
**A.** 163 nM

**Q.** What about the IC50 [2] of the same molecule?
**A.** 5 nM

**Q.** What about the IC50 [3] of the same molecule?
**A.** 50 nM

From ChEMBL document CHEMBL1949619, “Synthesis of potent oxindole CDK2 inhibitors” (Bioorg Med Chem, 2003)
